From patent publication US6251861A, “Treatment of cerebral infarction using cyclic hexapeptides” (Takeda Chemical Industries, Ltd., priority 1996, dated 2001)

system: endothelin A receptor / endothelin B receptor / endothelin converting enzyme; experiment: not given; conditions: ETA: endothelin A receptor; ETB: endothelin B receptor; ECE: endothelin converting enzyme (inhibition); from the literature cited in the tables; cited from earlier work

Compound | Selectivity
cyc(D-Trp-D-Asp-Pro-D-Val-Leu) [BQ-123] | ETA
CC(C)C[C@H](NP(=O)(O)CC(O)CO)C(=O)N[C@@H](Cc1c[nH]c2ccccc12)C(=O)[O-].CC(C)C[C@H](NP(=O)(O)CC(O)CO)C(=O)N[C@@H](Cc1c[nH]c2ccccc12)C(=O)[O-].[Na+].[Na+] (stereo partly drawn) [S-17162, N-(2,3 dihydroxy propyl phosphonyl)-(S)-Leu-(S)-Trp-OH, disodium salt] | ECE
cyc(Gly-Asn-Trp-His-Gly-Thr-Ala-Pro-Asp)-Trp-Phe-Asn-Tyr-Tyr-Trp [RES-7011] | ETB
Ac-D-Dip-Leu-Asp-Ile-Ile-Trp.2Na [PD142893] | ETA/ETB
O=P(O)(O)CN[C@@H](Cc1ccc(-c2ccccc2)cc1)c1nnn[nH]1 [CGS-26303, (S)-2-diphenyl-4-yl-1-(1H-tetrazol-5-yl)-ethylaminomethyl phosphonic acid] | ECE
O=P(CN[C@@H](Cc1ccc(-c2ccccc2)cc1)c1nnn[nH]1)(Oc1ccccc1)Oc1ccccc1 [CGS-26393, diphenyl[(S)-2-diphenyl-4-yl-1-(1H-tetrazol-5-yl)-ethylamino-methyl] phosphonate] | ECE
CCCc1cc(C(=O)O)ccc1OC(C(=O)NS(=O)(=O)c1ccc(C(C)C)cc1)c1ccc2c(c1)OCO2 (racemic) [L-749329, (±)N-(4-isopropylbenzenesulphonyl)-α-(4-carboxy-2-n-propylphenoxy)-3,4-methylene dioxyphenyl acetamide] | ETA
CCCCCOc1c(OC)cc(CC2=C(c3ccc4c(c3)OCO4)C(=O)OC2(O)c2ccc(OC)cc2)cc1OC (centres unmarked) [PD160672, 3-benzo(1,3)dioxol-5-yl-(3,5-dimethoxy-4-pentyloxybenzyl)-5-hydroxy-5-(4-methoxyphenyl)-5H-furan-2-one] | ETA/ETB
COc1ccc(C(=O)C(Cc2ccccc2)=C(C(=O)O)c2ccc3c(c2)OCO3)cc1 [PD155080, 2-benzo(1,3)dioxol-5-yl-3-benzyl-4-(4-methoxyphenyl)-4-oxobut-2-enoate] | ETA
27-O-3-[2-(3-carboxy-acryloylamino)-5-hydroxyphenyl]-acryloyloxy myricerone, sodium salt [97-139] | ETA
Cc1cc(C)cc(C(=O)N(C)[C@H](Cc2ccc(-c3ccno3)cc2)C(=O)N[C@@H](Cc2c[nH]c3ccccc23)C(=O)O)c1 [IRL2796, N-(3,5-dimethylbenzoyl)-N-methyl-(D)-[4-(5-isoxazolyl)-phenyl]-alanyl-L-tryptophan] | ETB
CC(C)C[C@H](NC(=O)N1CCCCCC1)C(=O)NC(Cc1cn(C)c2ccccc12)C(=O)N[C@H](Cc1ccccn1)C(=O)O (stereo partly drawn) [FR139317, (R)-2-{(S)-2-([1-{hexahydro-1H-azepinyl}carbonyl]-amino-methyl-pentamoyl)}-amino-3-(3[1-methyl-1H-indolyl])propionylamino-3-(2-pyridyl)propionic acid] | ETA
CC(C)C[C@H](NP(=O)(O)O[C@@H]1O[C@@H](C)[C@H](O)[C@@H](O)[C@H]1O)C(=O)N[C@@H](Cc1c[nH]c2ccccc12)C(=O)O [Phosphoramidon, N-phosphonyl L-Leu-L-Trp] | ECE
COc1cc(C2=C(CC3CCCCC3)C(O)(c3ccc4c(c3)OCCO4)OC2=O)cc2c1OCO2 (centres unmarked) [PD160874, 4-cryclohexyl-methyl-5-[2,3-dihydro-benzo(1,4)dioxin-6-yl]-5-hydroxy-3-[7-methoxybenzo(1,3)-dioxol-5-yl]-5H-furan-2-one] | ETA/ETB
CCCOc1cccc(CC(C(=O)c2ccc(OC)cc2)=C(C(=O)O)c2ccc3c(c2)OCO3)c1 [PD155719, 2-(1,3-benzodioxol-5-yl)-4-(4-methoxyphenyl)-4-oxo-3[(3-propoxyphenyl)methyl]-2-butenoic acid] | ETA
CCCOc1ccc2c(c1)[C@@H](c1ccc(OC)cc1OCCO)[C@H](C(=O)O)[C@H]2c1ccc2c(c1)OCO2 [SB-217242, (+)-(1S,2R,3S)-3-[2-(2-hydroxyeth-1-yloxy)-4-methoxyphenyl]-1-(3,4-methylenedioxyphenyl)-5-(prop-1-yloxy)indan-2-carboxylic acid] | ETA/ETB
CC(C)C[C@H](NP(=O)(O)CCc1ccc2ccccc2c1)C(=O)N[C@@H](Cc1c[nH]c2ccccc12)C(=O)O [N-2-(2-naphthyl)ethyl-phosphonyl-L-Leu-L-Trp] | ECE

Compound | Selectivity
COc1ccccc1Oc1c(NS(=O)(=O)c2ccc(C(C)(C)C)cc2)nc(-c2ncccn2)nc1OCCO [compound 2, 4-Tert-butyl-N-[6-(2-hydroxyethoxy)-5-(2-methoxyphenoxy)-2,2'-bipyrimidin-4-yl]-benzene sulfonamide] | ETA/ETB
CC(C)C[C@H](NC(=O)N1CCCCCC1)C(=O)N[C@H](Cc1cn(C)c2ccccc12)C(=O)N[C@H](Cc1ccc(O)cc1)C(=O)O [PD151242, (N-[(hexahydro-1-azepinyl)carbonyl])-L-Leu(1-Me)D-Trp-D-Tyr] | ETA
cys(D-Sal-L-Pro-D-Val-L-Leu-D-Trp) [BQ-153] | ETA
CC(=O)NC(CSC12CCC3(O)CC(C)=CC(=O)C3(O)C1(O)C(=O)c1cccc(O)c1C2=O)C(=O)O (centres unmarked) [WS009A, 2-acetamido-3-[[1,4,4a,5,6,6a,7,12,12a,12b-decahydro-4a,8,12a,12b-tetra-hydroxy-3-methyl-1,7,12-trioxobenz[a]anthracen-6a-yl]-thio]propionic acid] | ETA
COc1ccc(-c2nc(NS(=O)(=O)c3ccc(C(C)(C)C)cc3)c(Oc3ccccc3OC)c(OC[C@@H](O)CO)n2)cc1 [Ro46-8443, 4-tert-butyl-N-[(S)6-(2,3-dihydroxypropoxy)-5-(2-methoxyphenoxy)-2-(4-methoxyphenyl)-pyrimidin-4-yl]-benzene sulphonamide] | ETB
CCCc1cc(C(=O)OC)ccc1CC(C(=O)NS(=O)(=O)c1ccc(C(C)C)cc1)c1ccc2c(c1)OCO2 (racemic) [L-751281, (±)N-[2-(3,4-methylenedioxyphenyl)-3-(4-carbomethoxy-2-propylphenyl)-propanoly]-4-(isopropyl)benzene sulphonamide] | ETA
CCCc1cc(C(=O)O)ccc1OC(C(=O)NS(=O)(=O)c1ccc(C(C)C)cc1)c1ccc2c(c1)OCO2 (single isomer, unassigned; (-)) [L-754142, (-)N-(4-isopropylbenzenesulphonyl)-α-(4-carboxy-2-n-propylphenoxy)-3,4-methylene dioxyphenyl acetamide] | ETA
Ac-D-Bhg-Leu-Asp-Ile-Ile-Trp.2Na [PD145065] | ETA/ETB
Cc1noc(NS(=O)(=O)c2cccc3c(N(C)C)cccc23)c1C [BMS-182874, 5-(dimethylamino)-N-(3,4-dimethyl-5-isoxazolyl)-1-naphthalene sulphonamide] | ETA
Cc1cc(C)cc(C(=O)N(C)[C@H](Cc2ccc(-c3ccsc3)cc2)C(=O)N[C@@H](Cc2c[nH]c3ccccc23)C(=O)O)c1 [IRL2659, N-(3,5-dimethylbenzoyl)-N-methyl-(D)-[4-(3-thienyl)-phenyl]-alanyl-L-tryptophan] | ETB
Dmpc-.tau.-MeLeu-D-Trp(1-CO2 CH3)-D-Nle-OH [BQ-788] | ETB
COC(=O)c1cc(O)cc(OC)c1Oc1cc(C)cc(O)c1C(=O)O [Asterric acid] | ETA
[Cys^11 -Cys^15 ]-ET-1(11-21) [IRL-1038] | ETB
CC1(C)CC[C@]2(C(=O)O)CC[C@]3(COC(=O)/C=C/c4ccc(O)c(O)c4)C(=CC[C@@H]4[C@@]5(C)CCC(=O)C(C)(C)[C@@H]5CC[C@]43C)[C@@H]2C1 [50-235, 27-O-caffeoyl myricerone] | ETA
COc1ccc(C(=O)C(Cc2cc(OC)c(OC)c(OC)c2)=C(C(=O)O)c2ccc3c(c2)OCO3)cc1 [PD156707, 2-benzo(1,3)dioxol-5-yl-4-(4-methoxyphenyl)-4-oxo-3-(3,4,5-trimethoxybenzyl)-but-2-enoate] | ETA
Cc1cc(C)cc(C(=O)N(C)[C@H](Cc2ccc(-c3ccccc3)cc2)C(=O)N[C@@H](Cc2c[nH]c3ccccc23)C(=O)O)c1 [IRL2500, N-(3,5-dimethylbenzoyl)-N-methyl-(D)-[(4-phenyl)-phenyl]-alanyl-L-tryptophan] | ETB
COc1cccc(Oc2c(NS(=O)(=O)c3ccc(C(C)(C)C)cc3)ncnc2OCCO)c1 [Ro46-2005, 4-tert-butyl-N-[6-(2-hydroxyethoxy)-5-(3-methoxyphenoxy)-4-pyrimidinyl]-benzenesulphonamide] | ETA/ETB

system: total brain infarct models (gerbils, bilateral common carotid arteries obstructed for 15 minutes); experiment: Total brain infarct model, survival (Test Example 2); assay type: in vivo, gerbil; conditions: 3 mg/kg intraperitoneally twice (60 min before obstruction, 90 min after reperfusion), n=11, vehicle group 0%, p<0.05
Method: Mature male gerbils were divided into 2 groups and total brain infarct models were constructed by obstructing the bilateral common carotid arteries for 15 minutes (Nagisa et al., Basic Pharmacology & Therapeutics,23, 103-108, 1995). Control saline (vehicle) (Group A) and compound 2 (3 mg/kg) (Group B) were administered intraperitoneally twice, namely 60 minutes before obstruction and 90 minutes after reperfusion and the survival rates at 8 hours following reperfusion were compared between the groups. Intergroup comparison was made by ANOVA test (one-way analysis of variance).

Compound | survival rate at 8 hours after reperfusion [%]
COc1ccccc1Oc1c(NS(=O)(=O)c2ccc(C(C)(C)C)cc2)nc(-c2ncccn2)nc1OCCO [compound 2, 4-Tert-butyl-N-[6-(2-hydroxyethoxy)-5-(2-methoxyphenoxy)-2,2'-bipyrimidin-4-yl]-benzene sulfonamide] | 36
